In patent US20160067211A1, “PHARMACEUTICAL COMPOSITION” (Eberhard Karls Universitaet Tuebingen Medizinische Fakultaet, priority 2013, published 2016):

Legend:
HT-29 colon cancer cells = assay: MUH proliferation assay, HT-29; assay type: cell-based; conditions: rising concentrations 0.1 μM to 100 μM, 48 hours
Experimental: FIG. 6: 6-PN and 8-PN inhibit the growth of MCF-7 and HT-29. (A, B) MUH proliferation assay of HT-29 colon cancer cells and MCF-7 breast cancel cells treated with increasing concentrations of 6-PN and 8-PN (0.1 μM to 100 μM) for 48 hours. Shown are the mean±S.A.; the experiments were performed in quadruplicates.
The cells were seeded in triplicates in 96-well plates at a density of 2,500 cells per well in 50 μl medium (5×10^4 cells per milliliter). After 24 hours, the medium was replaced by medium containing 6-PN, 8-PN (dissolved in DMSO), TSA (dissolved in EtOH) or SAHA (dissolved in DMSO) at the concentrations to be tested with or without the addition of the necrosis inhibitor IM-54 at 5 μM (Calbiochem, Darmstadt, Germany). Cells treated with culture medium without or with DMSO served as controls. The assay was started following an incubation of 24 hours. The medium was discarded, each well was washed two times with PBS (without Ca^++ and Mg^++) and 100 μl of a solution containing […] of 4-methyl umbellipheryl heptanoate per ml PBS was added. Plates were incubated at 37° C. for 1 hour and measured in a Fluoroskan II (Lab Systems, Helsinki, Finland) with a […]. The intensity of fluorescence indicates the number of viable cells in the wells. […]

MCF7-cells = conditions: cited from earlier work
[1] = tested on: human HDAC enzymes HDAC1-HDAC11; assay: HDAC inhibition profiling (Fluor de Lys); assay type: biochemical; conditions: 100 μM, HDAC1-HDAC11, 1% DMSO
Experimental: FIG. 2: In silico docking analysis with 6-PN and 8-PN illustrates the inhibitory potential on human-derived HDACs of class I and II. (A) Results of the in silico docking analysis of 6-PN and 8-PN with crystal structures of HDAC2 (class I) and HDAC4 (class II). […] Both molecules are predicted to interact with the zinc ion as well as other residues of the catalytic center. Docking analyses of 6-PN and 8-PN in the individual HDAC binding pockets were performed using GOLD (version 4.1.2) and MOE (version 2009.10). (B) Overall HDAC inhibition in cellular extracts of the human cell line HeLa by increasing concentrations of 6-PN and 8-PN (5 μM, 10 μM, 20 μM, 50 μM and 100 μM). As reference inhibitor 100 μM SAHA was used. Every concentration was tested three times in triplicates. Shown are the mean±SD. (C) Specific fluometric profiling assay using recombinant human HDACs of classes I, II and IV. Specific inhibition values were generated for the treatment with 100 μM 6-PN and 8-PN. […]
The human HDAC profiling assay was performed on the basis of the Fluor de Lys™ technology by Scottish Biomedical, Glasgow, United Kingdom. The percentage inhibition values of 100 μM of 6-PN and 100 μM of 8-PN against the human HDAC enzymes HDAC1, HDAC2, HDAC3, HDAC4, HDAC5, HDAC6, HDAC7, HDAC8, HDAC9, HDAC10, and HDAC11 were determined. […]

SK-MEL-28 melanoma cells = assay: FACS cell cycle analysis (PI), SK-MEL-28; assay type: cell-based, human; conditions: SK-MEL-28, 100 μM, 48 hours
Experimental: (A) Cell cycle FACS analyses of PI stained BLM and SK-MEL-28 melanoma cells. 100 μM of 8-PN-induced a G2 arrest in both cells. (B) FACS analyses of BLM and SK-MEL-28 melanoma cells treated with 100 μM 6-PN or 8-PN and stained for annexin V/PI; staurosporin was used as control for apoptosis induction and DMSO as vehicle control. […] (C) BLM and SK-MEL-28 melanoma cells were treated with 100 μM of PNs; TSA, SAHA and EMSO were used as controls.
To further analyze the possibility of apoptosis induction, an extensive apoptosis assay was performed on SK-MEL-28 melanoma cells 4 hours after treatment with 100 μM 6-PN or 8-PN (FIG. 9). […] This was verified by FACS cell cycle analyses to screen for a possible increase of the sub-G1 fraction of cells (apoptotic cells) or for the induction of a G2 arrest (inhibition of proliferation). […] To further differentiate between the induction of apoptosis and/or necrosis an PI/Annexin V staining of SK-MEL-28 and BLM cells was performed 4 hours and 24 hours after the treatment with 6-PN or 8-PN; 10 μM staurosporin (6 hours treatment) was used as positive control for the induction of apoptosis; DMSO treatment was used as vehicle control. The cells were then analyzed by FACS.

In the case of `CC(C)=CCc1c(O)cc(O)c2c1OC(c1ccc(O)cc1)CC2=O` (centres unmarked) [8-PN, 5,7-Dihydroxy-2-(4-hydroxy-phenyl)-8-(3-methyl-but-2-enyl)-chroman-4-one], the cell proliferation (HT-29 colon cancer cells) is listed as “severe reduction”, the apoptosis (MCF7-cells) is listed as “induces the apoptosis” and the “inhibition of HDAC activity on all tested human HDACs” value [1] is listed as “strongly inhibited”. For the same molecule, the “sub-G1 fraction (apoptotic cells)” value (SK-MEL-28 melanoma cells) was “remained unaffected” and the “cells in the G2 phase” value (SK-MEL-28 melanoma cells; DMSO control 20.1%) was 49.8%.
